Data from patent US20050080140A1, “Method for treating or preventing inflammatory disorders” (AnGes MG, Inc., priority 2003, published 2005).

Assays:
HEK-293 cells = experiment: cDNA microarray analysis of cells expressing intracellular PGI2 (PGISwt vs inactive PGISC441A); type: cell-based, human; details: ratio of PGISwt to PGISC441A, 36 h
Protocol: HEK-293 cells (1.2×10^4 cells/cm^2) were transfected with expression vector for PGISwt or PGISC441A using LipofectAMINE (Invitrogen) and maintained in DMEM containing 10% FBS, 2 mM L-glutamine, 100 U/ml penicillin and […] streptomycin for 36 h. Poly(A+) mRNA (1.5 μg) was prepared from3×10^6 cells using Isogen (Nippon Gene) and Oligotex-dT30 super mRNA purification kit (Takara, Tokyo, Japan). Samples were analyzed by gene expression microarray (GEM) DNA tip containing 9,182 human cDNA clones (HUMAN UniGEM V Ver2.0, IncyteGenomics, Palo Alto, Calif.). Conversion of poly(A+) mRNA to cDNA with incorporation of Cy3- or Cy5-labeled deoxynucleotide-triphosphates (dNTPs), hybridization to arrays coated on glass, quality control and normalization were performed by IncyteGenomics. All data analyses were performed using an average fold change of two assays, and data were expressed as the ratio of PGISwt to PGISC441A.
In order to identify the downstream mediators of intracellular PGI2-PPARδ signaling pathway, a cDNA microarray analysis of human cells expressing intracellular PGI2 was performed. Based on precious studies of the inventors (Hatae et al., J. Biol. Chem. (2001) 276: 46260-7), a human embryonic kidney cell line (HEK-293) transfected with the expression vector for wild-type PGIS (PGISwt) was used to achieve endogenous expression of intracellular PGI2.

COX-2 gene = experiment: RT-PCR analysis of COX-2 mRNA; type: cell-based, human; details: HUVEC, combination of TNF-α (1 ng/ml) and IL-1β (20 ng/ml), FIG. 5
Protocol: For analysis of IL-13, human vascular endothelial cells (1.2×10^4 cells/cm^2) were stimulated with cPGI (10 μM) for 12 h, and total RNA was prepared from stimulated cells with Isogen (Nippon Gene). For analysis of COX-2, human vascular endothelial cells (1.2×10^4 cells/cm^2) were pretreated with TNF-α (1 ng/ml) and IL-1b (20 ng/ml) for 1 h, and then treated with cPGI (0, 10 μM), anti-human IL-13 monoclonal antibody (0, 0.5 μg/ml) and control IgG (0, 0.5 μg/ml) for 12 h to prepare total RNA. The total RNA (0.5 μg) was used for analysis by SuperScript RT-PCR system (Invitrogen) according to the manufacturer's instructions. The oligonucleotide primers used were IL-13-s (5′-[…]-3′ (SEQ ID NO: 6); sense) and IL-13-as (5′-[…]-3′ (SEQ ID NO: 7); antisense) for human IL-13, β-actin-s (5′-[…]-3′ (SEQ ID NO: 8); sense) and β-actin-as (5′-[…]-3′ (SEQ ID NO: 9); antisense) for human β-actin, and COX-2-s (5′-[…]-3′ (SEQ ID NO: 10); sense) and COX-2-as (5′-[…]-3′ (SEQ ID NO: 11); antisense) for human COX-2. For each PCR amplification, 1 μl of cDNA was used in a 50 μl reaction. Reverse transcription-PCR (RT-PCR) for β-actin (25 cycles) was used as an internal control for mRNA abundance. For IL-13 and COX-2 genes, the number of cycles ranged from 25 to 45. […] Samples were normalized based on equivalent expression of β-actin.

[1] = test system: adhesion between human vascular endothelial cells and monocytic leukocyte U937 cells; experiment: Adherence assay of U937 cells to endothelial monolayers; type: cell-based; details: HUVEC, 24 h
Protocol: HUVEC (2.5×10^4 cells/cm^2) were cultured in 12-well plates. After 24 h, confluent monolayers were used for adherence assays. Monolayers were preincubated in EGM-2 containing 2% FBS, 0 or 10 ng/ml TNF-α, 0 or 10 ng/ml IL-13 and 0 or 10 μM cPGI with or without anti-IL-13 monoclonal antibody (0.5 μg/ml) at 37° C. for 0 to 24 h. Human monocyte leukocyte U937 cells were cultured in RPMI 1640 (Gibco-Invitrogen) containing 10% FBS, 100 U/ml penicillin and […] streptomycin , labeled with 2.5 μM calcein-AM (Molecular Probes, Eugene, Oreg.) at room temperature for 45 min, washed and resuspended in serum-free EGM-2. The calcein-labeled U937 cells (8×10^4 cells/well) were added to pretreated endothelial cells and incubated with cPGI (0, 10 μM), recombinant IL-13 (0, 10 ng/ml) and anti-IL-13 monoclonal antibody (0, 0.5 μg/ml). U937 cells were allowed to adhere to pretreated endothelial cells for 30 min at 37° C. Adherence was assessed with a fluorescence image analyzer (FLA-2000; Fujifilm, Tokyo, Japan). Plates were scanned before and after washing for total and adherent cells, respectively, and relative adherence was calculated (fold of control).

IL-13 = IL-13 ELISA of culture medium of human vascular endothelial cells; type: cell-based; details: HUVEC treated with TNF-α 0-10 ng/ml, 24 h, FIG. 4C
Protocol: (§1) Human vascular endothelial cells (1.2×10^4 cells/cm^2) were cultured in EGM-2 containing 2% FBS and several concentrations of cPGI with or without TNF-α for 24 h. Incubation media were collected and stored at −80° C. before assay. Amounts of IL-13 were measured with human IL-13 ELISA system (Amersham Pharmacia Biotech, Buckinghamshire, UK) and amounts of PGI2 were measured as the amounts of 6-keto-PGI1α, a stable metabolite of PGI2, with 6-keto-PGI1α ELISA kit (Cayman Chemical Co., Ann Arbor, Mich.) according to the manufacturers' instructions.
(§2) siRNA duplexes with the following sense and antisense sequences were made: PGIS1, 5′-[…]-3′ (SEQ ID NO: 12; sense) and 5′-[…]-3′ (SEQ ID NO: 13; antisense); PGIS2, 5′-[…]-3′ (SEQ ID NO: 14; sense) and 5′-[…]-3′ (SEQ ID NO: 15; antisense); PGIS3, 5′-[…]-3′ (SEQ ID NO: 16; sense) and 5′-[…] (SEQ ID NO: 17; antisense); and PGIS4, 5′-[…]-3′ (SEQ ID NO:, 18; sense) and 5′-[…]-3′ (SEQ ID NO: 19; antisense). siRNAs were synthesized and annealed by Dharmacon Research Inc. (Lafayette, CO). Control non-silencing siRNA, a duplex of sense (5′-UUCUCCGAACGUGUCACGUdTdT-3′; SEQ ID NO: 20) and antisense (5′-ACGUGACACGUUCGGAGAAdTdT-3′; SEQ ID NO: 21) sequences, was purchase from Qiagen (Valencia, Calif.). The cells were initially transfected with 200 pmol per well of the annealed RNA mixture or the same amount of control siRNA using LipofectAMINE2000 (Invitrogen), and 12 h later secondly transfected with the same amount of siRNAs using HVJ-liposome transfection kit (GenomeONE; Ishihara Sangyo, Osaka, Japan) according to the manufacturers' instructions. The cells were retransfected with the siRNAs every 3 days using LipofectAMINE2000 and HVJ-liposome, and used for analyses 10 days after transfection. Microsomal fractions of the cells were prepared and analyzed by immunoblotting with anti-PGIS P4 polyclonal antibody as described previously (Hatae et al., J. Biol. Chem. (2001) 276: 46260-7). The cells treated with siRNAs for 10 days were cultured in fresh EGM-2 containing 2% FBS and TNF-α (0, 10 ng/ml). with or without cPGI (10 μM) for 24 h. The incubation media were collected, and amounts of 6-keto-PGI1α or IL-13 were measured with ELISA kit.

[2] = test system: endogenous PGI2 production; experiment: PGI2 assay (6-keto-PGF1α ELISA); type: cell-based, human; details: HUVEC, TNF-α 0, 0.1, 1 or 10 ng/ml, 24 h, FIG. 4A
Protocol: as §1
siRNA duplexes with the following sense and antisense sequences were made: PGIS1, 5′-[…]-3′ (SEQ ID NO: 12; sense) and 5′-[…]-3′ (SEQ ID NO: 13; antisense); PGIS2, 5′-[…]-3′ (SEQ ID NO: 14; sense) and 5′-[…]-3′ (SEQ ID NO: 15; antisense); PGIS3, 5′-[…]-3′ (SEQ ID NO: 16; sense) and 5′-[…] (SEQ ID NO: 17; antisense); and PGIS4, 5′-[…]-3′ (SEQ ID NO:, 18; sense) and 5′-[…]-3′ (SEQ ID NO: 19; antisense). siRNAs were synthesized and annealed by Dharmacon Research Inc. (Lafayette, CO). […] Microsomal fractions of the cells were prepared and analyzed by immunoblotting with anti-PGIS P4 polyclonal antibody as described previously (Hatae et al., J. Biol. Chem. (2001) 276: 46260-7). […] The incubation media were collected, and amounts of 6-keto-PGI1α or IL-13 were measured with ELISA kit.

PPRE (PPARδ activation) = experiment: PPREx3-luciferase reporter assay; type: cell-based, human; details: HUVEC treated with TNF-α 0-10 ng/ml, 24 h, FIG. 4B
Protocol: Primary cultured human umbilical vein endothelial cells (HUVEC) and human aortic endothelial cells (HAEC) were obtained from Kurabo Co. Ltd. (Tokyo, Japan) and were cultured in EGM-2 growth medium supplemented with 2% fetal bovine serum (FBS) and a mixture of growth factors according to the supplier's instructions. Total RNA from the cells in culture was prepared with Isogen (Nippon Gene, Tokyo, Japan). Human embryonic kidney HEK-293 cells were cultured in DMEM containing 10% FBS, 2 mM L-glutamine, 100 U/ml penicillin and […] streptomycin as described previously (Hatae et al., J. Biol. Chem. (2001) 276: 46260-7). […] HEK-293 cells were transfected with DNA using lipofectAMINE (Invitrogen, Carlsbad, Calif.) as described previously (Hatae et al., J. Biol. Chem. (2001) 276: 46260-7). Human vascular endothelial cells were transfected with TransIT LT-1 (PanVera Co., Madison, Wis.). Transfections were performed at a ratio of 1 μg of DNA to 3.0 μl of the reagents, and cells were incubated in serum-free EGM-2 at 37° C. for 5 h. Subsequently, cells were grown in fresh EGM-2 containing 2% FBS and a mixture of growth factors for 12 h before analysis. For reporter assay, human vascular endothelial cells (1.2×10^4 cells/cm^2) were cotransfected with 0.2 μg of the PPREx3-luciferase reporter vector and 0.1 μg of β-galactosidase expression vector by use of TransIT LT-1. After 17 h of transfection, cells were washed with PBS, incubated in EGM-2 containing 2% FBS and cPGI (0-100 μM) for 24 h at 37° C., and subjected to luciferase assay as described previously (Hatae et al., J. Biol. Chem. (2001) 276: 46260-7). The luciferase activity of the extract was normalized to β-galactosidase activity.

PGIS = experiment: RNAi silencing of PGIS, immunoblotting with anti-PGIS antibody; type: cell-based, human; details: HUVEC, siRNA treatment for 10 days, FIG. 6A
Text: as §2, with “The cells were retransfected with the siRNAs every 3 days using LipofectAMINE2000 and HVJ-liposome, and used for analyses 10 days after transfection.” left out, “The cells treated with siRNAs for 10 days were cultured in fresh EGM-2 containing 2% FBS and TNF-α (0, 10 ng/ml). with or without cPGI (10 μM) for 24 h.” left out

CCCCC[C@H](O)/C=C/[C@@H]1[C@H]2C/C(=C/CCCC(=O)O)O[C@H]2C[C@H]1O [PGI2, prostacyclin]
Differential expression, IL-13 (NM_002188) (HEK-293 cells): +11.0
Differential expression, Sjogren syndrome antigen (BF897247) (HEK-293 cells): +2.8
Differential expression, aldehyde dehydrogenase 1 family, member A1 (AI050734) (HEK-293 cells): +2.5
Differential expression, butyrophilin, subfamily 3, member A2 (AA482308) (HEK-293 cells): +2.7
Differential expression, isopentenyl-diphosphate delta isomerase (BF698441) (HEK-293 cells): +2.9
Differential expression, mal T-cell differentiation protein (NM_022439) (HEK-293 cells): +7.0 mal

IL-1: Recombinant human IL-1β, proinflammatory cytokine
expression of COX-2 mRNA (COX-2 gene): induced

IL-13: recombinant human IL-13
TNF-α-induced monocytic leukocyte-endothelial cell adhesion ([1]; TNF-α 10 ng/ml plus antibody 0.5 μg/ml, cPGI 10 μM or IL-13 10 ng/ml, FIG. 4D lanes 3-5): inhibited

TNF-α
production of IL-13 (IL-13): increased
adhesion between U937 cells and endothelial cells ([1]; TNF-α 10 ng/ml alone, FIG. 4D lanes 1 and 2): increase adhesion
endogenous PGI2 production [2]: significantly induced
expression of COX-2 mRNA (COX-2 gene): induced
relative luciferase activity of reporter vector containing PPRE (PPRE (PPARδ activation)): increased

control siRNA: Control non-silencing siRNA duplex (SEQ ID NO: 20, 21) from Qiagen (chain 1 UUCUCCGAACGUGUCACGUNN; chain 2 ACGUGACACGUUCGGAGAANN; listed as RNA, chemistry not fully specified)
endogenous expression of PGIS (Western analysis) (PGIS): no effect
